Source: US20260256792A1, “TREATMENT OF CHRONIC SPONTANEOUS URTICARIA BY ADMINISTERING (R)-2-[3-[4-AMINO-3-(2-FLUORO-4-PHENOXY-PHENYL)PYRAZOLO[3,4-D]PYRIMIDIN-1-YL]PIPERIDINE-1-CARBONYL]-4-METHYL-4-[4-(OXETAN-3-YL)PIPERAZIN-1-YL]PENT-2-ENENITRILE” (priority 2023, published 2026)

Test system: moderate-to-severe chronic spontaneous urticaria (CSU)
Experiment: Phase 2 CSU study: itch severity score over 7 days (ISS7)
Type: in vivo, human
Description: The study comprises a 12 week, randomized, double-blind, placebo-controlled, multi-center, dose-ranging efficacy and safety phase, followed by a 40 week open label extension (OLE) phase (see FIG. 1). The study consists of three phases and an optional OLE phase. […] Clinically, CSU is characterized by the spontaneous and recurrent appearance of pruritic hives. The proposed primary endpoints were the UAS7 at Week 12 in EU and EU reference countries and the ISS7 in the US. Regardless of where a participant was from, all assessments were the same. The UAS7 score is a composite score containing both the HSS7 and the ISS7. This allowed a global assessment of the two key components of urticaria: hives and itch. […] The UAS is a validated PRO measure. […] The daily UAS scores range from 0 to 6 point/day. […] Patients were to complete the UAS using the e-diary. […] The following secondary endpoints were to be analyzed using the same approach as for the primary endpoint: • Change from baseline in UAS7 at Week 4 • Change from baseline in UAS7 at Week 12 (for US and US reference countries) • Change from baseline in ISS7 at Week 12 (except US and US reference countries) • Change from baseline in HSS7 at Week 12

[1] = Week 7, 400 mg TID, Omalizumab-Naïve
[2] = Week 7, 400 mg TID, Prior Omalizumab Use
[3] = Week 8, 400 mg BID, Omalizumab-Naïve
[4] = Week 8, 400 mg BID, Prior Omalizumab Use
[5] = Week 8, 400 mg QPM, Omalizumab-Naïve
[6] = Week 8, 400 mg QPM, Prior Omalizumab Use
[7] = Week 8, 400 mg TID, Omalizumab-Naïve
[8] = Week 8, 400 mg TID, Prior Omalizumab Use
[9] = Week 9, 400 mg BID, Omalizumab-Naïve
[10] = Week 9, 400 mg BID, Prior Omalizumab Use
[11] = Week 9, 400 mg QPM, Omalizumab-Naïve
[12] = Week 9, 400 mg QPM, Prior Omalizumab Use
[13] = Week 9, 400 mg TID, Omalizumab-Naïve
[14] = Week 9, 400 mg TID, Prior Omalizumab Use
[15] = Week 10, 400 mg BID, Omalizumab-Naïve
[16] = Week 10, 400 mg BID, Prior Omalizumab Use

Question: Which results are given for `CC(C)(C=C(C#N)C(=O)N1CCC[C@@H](n2nc(-c3ccc(Oc4ccccc4)cc3F)c3c(N)ncnc32)C1)N1CCN(C2COC2)CC1` [rilzabrutinib, (R)-2-[3-[4-amino-3-(2-fluoro-4-phenoxy-phenyl)pyrazolo[3,4-d]pyrimidin-1-yl]piperidine-1-carbonyl]-4-methyl-4-[4-(oxetan-3-yl)piperazin-1-yl]pent-2-enenitrile]?
Answer: ISS7 Change from baseline Mean (SD) [1]: −8.96 (5.57); ISS7 Change from baseline Median [1]: −9.00; ISS7 Mean (SD) [1]: 7.14 (5.35); ISS7 Median [1]: 8.00; ISS7 Percent change from baseline Mean (SD) [1]: −55.24 (31.64) %; ISS7 Percent change from baseline Median [1]: −52.66%; ISS7 Change from baseline Mean (SD) [2]: −9.94 (7.89); ISS7 Change from baseline Median [2]: −7.33; ISS7 Mean (SD) [2]: 7.06 (6.25); ISS7 Median [2]: 6.00; ISS7 Percent change from baseline Mean (SD) [2]: −54.94 (32.91) %; ISS7 Percent change from baseline Median [2]: −48.16%; ISS7 Change from baseline Mean (SD) [3]: −8.15 (6.15); ISS7 Change from baseline Median [3]: −9.00; ISS7 Mean (SD) [3]: 7.33 (6.55); ISS7 Median [3]: 6.00; ISS7 Percent change from baseline Mean (SD) [3]: −53.11 (38.61) %; ISS7 Percent change from baseline Median [3]: −60.00%; ISS7 Change from baseline Mean (SD) [4]: −11.00 (9.49); ISS7 Change from baseline Median [4]: −14.00; ISS7 Mean (SD) [4]: 6.20 (8.32); ISS7 Median [4]: 1.00; ISS7 Percent change from baseline Mean (SD) [4]: −61.52 (49.97) %; ISS7 Percent change from baseline Median [4]: −93.33%; ISS7 Change from baseline Mean (SD) [5]: −6.03 (4.99); ISS7 Change from baseline Median [5]: −6.00; ISS7 Mean (SD) [5]: 10.72 (5.26); ISS7 Percent change from baseline Mean (SD) [5]: −36.14 (28.79) %; ISS7 Percent change from baseline Median [5]: −33.68%; ISS7 Change from baseline Mean (SD) [6]: −14.00 (NC); ISS7 Change from baseline Median [6]: −14.00; ISS7 Mean (SD) [6]: 7.00 (NC); ISS7 Median [6]: 7.00; ISS7 Change from baseline Mean (SD) [7]: −9.01 (5.43); ISS7 Change from baseline Median [7]: −9.33; ISS7 Mean (SD) [7]: 7.24 (5.51); ISS7 Median [7]: 7.00; ISS7 Percent change from baseline Mean (SD) [7]: −55.59 (31.84) %; ISS7 Percent change from baseline Median [7]: −53.49%; ISS7 Change from baseline Mean (SD) [8]: −12.67 (6.71); ISS7 Change from baseline Median [8]: −14.00; ISS7 Mean (SD) [8]: 4.33 (6.83); ISS7 Median [8]: 1.50; ISS7 Percent change from baseline Mean (SD) [8]: −77.10 (31.49) %; ISS7 Percent change from baseline Median [8]: −86.61%; ISS7 Change from baseline Mean (SD) [9]: −7.57 (6.14); ISS7 Change from baseline Median [9]: −8.00; ISS7 Mean (SD) [9]: 7.63 (7.11); ISS7 Median [9]: 7.00; ISS7 Percent change from baseline Mean (SD) [9]: −51.57 (40.77) %; ISS7 Percent change from baseline Median [9]: −53.33%; ISS7 Change from baseline Mean (SD) [10]: −10.83 (9.53); ISS7 Change from baseline Median [10]: −15.00; ISS7 Mean (SD) [10]: 6.37 (8.47); ISS7 Median [10]: 1.00; ISS7 Percent change from baseline Mean (SD) [10]: −60.71 (51.74) %; ISS7 Percent change from baseline Median [10]: −95.24%; ISS7 Change from baseline Mean (SD) [11]: −6.39 (5.27); ISS7 Change from baseline Median [11]: −5.42; ISS7 Percent change from baseline Mean (SD) [11]: −37.00 (28.06) %; ISS7 Percent change from baseline Median [11]: −33.33%; ISS7 Change from baseline Mean (SD) [12]: 11.00 (NC); ISS7 Change from baseline Median [12]: −11.00; ISS7 Mean (SD) [12]: 10.00 (NC); ISS7 Percent change from baseline Mean (SD) [12]: −52.38 (NC) %; ISS7 Percent change from baseline Median [12]: −52.38%; ISS7 Change from baseline Mean (SD) [13]: −9.70 (5.57); ISS7 Change from baseline Median [13]: −10.00; ISS7 Mean (SD) [13]: 6.68 (5.31); ISS7 Median [13]: 7.00; ISS7 Percent change from baseline Mean (SD) [13]: −58.56 (30.66) %; ISS7 Percent change from baseline Median [13]: −65.00%; ISS7 Change from baseline Mean (SD) [14]: −12.36 (6.72); ISS7 Change from baseline Median [14]: −13.92; ISS7 Mean (SD) [14]: 4.64 (6.72); ISS7 Median [14]: 2.00; ISS7 Percent change from baseline Mean (SD) [14]: −74.49 (30.89) %; ISS7 Percent change from baseline Median [14]: −83.01%; ISS7 Change from baseline Mean (SD) [15]: −7.07 (6.58); ISS7 Change from baseline Median [15]: −7.58; ISS7 Mean (SD) [15]: 8.17 (7.29); ISS7 Median [15]: 7.00; ISS7 Percent change from baseline Mean (SD) [15]: −47.10 (43.27) %; ISS7 Percent change from baseline Median [15]: −48.10%; ISS7 Change from baseline Mean (SD) [16]: −9.80 (9.55); ISS7 Change from baseline Median [16]: −11.00; ISS7 Mean (SD) [16]: 7.40 (8.11); ISS7 Median [16]: 4.00; ISS7 Percent change from baseline Mean (SD) [16]: −53.71 (50.05) %; ISS7 Percent change from baseline Median [16]: −73.33%; ISS7 Change from baseline Mean (SD) (Week 10, 400 mg QPM, Omalizumab-Naïve): −6.43 (5.26)
